# Experimental data taken from patent publication US20260345517A1, “DOSAGE REGIMENS FOR TREATING STARGARDT DISEASE” (Alkeus Pharmaceuticals, Inc., priority 2024, published 2026).
# Experiment: TEASE-1: safety and adverse events
# Type: in vivo, human
# Method: The Tolerability and Effects of gildeuretinol acetate in Stargardt Disease (Clinical trial group 1 also known as TEASE-1) was a 24-month, multicenter, double-masked, placebo-controlled trial designed to evaluate the efficacy and safety of daily oral gildeuretinol acetate in slowing the growth of atrophic retinal lesions in Stargardt disease patients. The trial was conducted at multiple sites in the United States (NCT02402660).
# Patients 12 years or older, clinically diagnosed with Stargardt disease, with at least one ABCA4 mutation, at least one eye presenting with well-demarcated areas of reduced fundus autofluorescence, and with any visual acuity, were eligible.
# Patients were randomized to gildeuretinol acetate 14 mg capsules, gildeuretinol acetate 24 mg capsules, or placebo capsules, to be taken once daily for one year. After one year, 50% of randomly selected patients receiving placebo were crossed over in a 1:1 ratio to gildeuretinol acetate 14 mg capsules or gildeuretinol acetate 24 mg capsules for a second year.
# Gildeuretinol acetate and placebo capsules were identical appearing capsules. Patients were advised to avoid vitamin A-containing supplements and liver-based products. Fruits and vegetables contain beta-carotene, not preformed vitamin A, and could be consumed without limitation. Trial visits occurred at 8 weeks and 6, 12, 18, and 24 months following screening and randomization.
structure (smiles),measurement,setting,value
"CC(=O)OC/C=C(C)/C=C/C=C(C)/C=C/C1=C(C)CCCC1(C)C [gildeuretinol acetate, C20-D3-retinol acetate]","changes by physical examination, electrocardiogram, vital signs, hematology, biochemistry and lipid panels",14 mg and 24 mg,no changes were attributed to gildeuretinol acetate
same,changes in visual acuity,14 mg and 24 mg,No changes in visual acuity were observed
same,discontinuation due to side effects,14 mg and 24 mg,no patient discontinued treatment due to side effects
same,serious adverse events,14 mg and 24 mg,No serious adverse events
same,severity of adverse events,14 mg and 24 mg,mild or moderate
same,association between treatment groups and frequency of adverse events,14 mg and 24 mg vs placebo,no association was observed
same,Abdominal discomfort,"14 mg, N = 15",0 patients (%)
same,Abdominal distension,"14 mg, N = 15",0 patients (%)
same,Abdominal pain upper,"14 mg, N = 15",0 patients (%)
same,Abnormal dreams,"14 mg, N = 15",0 patients (%)
same,"Adverse events, Overall","14 mg, N = 15",12 (80) patients (%)
same,Alanine aminotransferase increased,"14 mg, N = 15",1 (6.7) patients (%)
same,Alopecia,"14 mg, N = 15",2 (13.3) patients (%)
same,Ankle fracture,"14 mg, N = 15",1 (6.7) patients (%)
same,Arthralgia,"14 mg, N = 15",1 (6.7) patients (%)
same,Arthritis,"14 mg, N = 15",0 patients (%)
same,Aspartate aminotransferase increased,"14 mg, N = 15",1 (6.7) patients (%)
same,Back injury,"14 mg, N = 15",0 patients (%)
same,Back pain,"14 mg, N = 15",0 patients (%)
same,Blepharospasm,"14 mg, N = 15",0 patients (%)
same,Blood cholesterol increased,"14 mg, N = 15",0 patients (%)
same,Blood creatinine increased,"14 mg, N = 15",1 (6.7) patients (%)
same,Blood iron decreased,"14 mg, N = 15",0 patients (%)
same,Blood pressure increased,"14 mg, N = 15",0 patients (%)
same,Blood triglycerides increased,"14 mg, N = 15",1 (6.7) patients (%)
same,Bowel movement irregularity,"14 mg, N = 15",0 patients (%)
same,Bronchitis,"14 mg, N = 15",0 patients (%)
same,Cartilage injury,"14 mg, N = 15",1 (6.7) patients (%)
same,Conjunctival laceration,"14 mg, N = 15",0 patients (%)
same,Conjunctivitis,"14 mg, N = 15",1 (6.7) patients (%)
same,Constipation,"14 mg, N = 15",0 patients (%)
same,Cough,"14 mg, N = 15",0 patients (%)
same,Death,"14 mg, N = 15",1 (6.7) patients (%)
same,Depression,"14 mg, N = 15",1 (6.7) patients (%)
same,Diarrhoea,"14 mg, N = 15",1 (6.7) patients (%)
same,Diplopia,"14 mg, N = 15",0 patients (%)
same,Dry eye,"14 mg, N = 15",0 patients (%)
same,Dry mouth,"14 mg, N = 15",1 (6.7) patients (%)
same,Dry skin,"14 mg, N = 15",0 patients (%)
same,Ear discomfort,"14 mg, N = 15",0 patients (%)
same,Ear infection,"14 mg, N = 15",0 patients (%)
same,Ear pain,"14 mg, N = 15",0 patients (%)
same,Eczema,"14 mg, N = 15",0 patients (%)
same,Electrocardiogram abnormal,"14 mg, N = 15",0 patients (%)
same,Erythema,"14 mg, N = 15",0 patients (%)
same,Eye irritation,"14 mg, N = 15",1 (6.7) patients (%)
same,Eye pain,"14 mg, N = 15",0 patients (%)
same,Eye pruritus,"14 mg, N = 15",0 patients (%)
same,Face injury,"14 mg, N = 15",1 (6.7) patients (%)
same,Faeces soft,"14 mg, N = 15",1 (6.7) patients (%)
same,Fall,"14 mg, N = 15",1 (6.7) patients (%)
same,Gastroenteritis,"14 mg, N = 15",1 (6.7) patients (%)
same,Gastroenteritis viral,"14 mg, N = 15",0 patients (%)
same,Hair texture abnormal,"14 mg, N = 15",0 patients (%)
same,Hand fracture,"14 mg, N = 15",1 (6.7) patients (%)
same,Headache,"14 mg, N = 15",1 (6.7) patients (%)
same,Herpes zoster,"14 mg, N = 15",1 (6.7) patients (%)
same,Hordeolum,"14 mg, N = 15",0 patients (%)
same,Hypertension,"14 mg, N = 15",0 patients (%)
same,Hypobarism,"14 mg, N = 15",0 patients (%)
same,Hypothyroidism,"14 mg, N = 15",0 patients (%)
same,Hysterectomy,"14 mg, N = 15",0 patients (%)
same,Inflammation,"14 mg, N = 15",0 patients (%)
same,Influenza,"14 mg, N = 15",0 patients (%)
same,Insomnia,"14 mg, N = 15",1 (6.7) patients (%)
same,Intracranial pressure increased,"14 mg, N = 15",0 patients (%)
same,Irritability,"14 mg, N = 15",0 patients (%)
same,Jaw operation,"14 mg, N = 15",0 patients (%)
same,Knee arthroplasty,"14 mg, N = 15",1 (6.7) patients (%)
same,Laryngitis,"14 mg, N = 15",1 (6.7) patients (%)
same,Lip swelling,"14 mg, N = 15",0 patients (%)
same,Low density lipoprotein increased,"14 mg, N = 15",1 (6.7) patients (%)
same,Muscle spasms,"14 mg, N = 15",1 (6.7) patients (%)
same,Muscle strain,"14 mg, N = 15",0 patients (%)
same,Musculoskeletal pain,"14 mg, N = 15",1 (6.7) patients (%)
same,Nasopharyngitis,"14 mg, N = 15",2 (13.3) patients (%)
same,Nausea,"14 mg, N = 15",0 patients (%)
same,Neck pain,"14 mg, N = 15",0 patients (%)
same,Nephrolithiasis,"14 mg, N = 15",1 (6.7) patients (%)
same,Nerve compression,"14 mg, N = 15",0 patients (%)
same,Neuralgia,"14 mg, N = 15",1 (6.7) patients (%)
same,Obsessive-compulsive disorder,"14 mg, N = 15",0 patients (%)
same,Oropharyngeal pain,"14 mg, N = 15",0 patients (%)
same,Osteoporosis,"14 mg, N = 15",0 patients (%)
same,Pain,"14 mg, N = 15",2 (13.3) patients (%)
same,Pain in extremity,"14 mg, N = 15",1 (6.7) patients (%)
same,Pain in jaw,"14 mg, N = 15",0 patients (%)
same,Peripheral coldness,"14 mg, N = 15",0 patients (%)
same,Pharyngitis streptococcal,"14 mg, N = 15",1 (6.7) patients (%)
same,Photophobia,"14 mg, N = 15",1 (6.7) patients (%)
same,Photopsia,"14 mg, N = 15",1 (6.7) patients (%)
same,Plantar fasciitis,"14 mg, N = 15",1 (6.7) patients (%)
same,Pleurisy,"14 mg, N = 15",0 patients (%)
same,Pneumonia,"14 mg, N = 15",0 patients (%)
same,Premenstrual syndrome,"14 mg, N = 15",0 patients (%)
same,Punctate keratitis,"14 mg, N = 15",1 (6.7) patients (%)
same,Pyrexia,"14 mg, N = 15",0 patients (%)
same,Radius fracture,"14 mg, N = 15",1 (6.7) patients (%)
same,Rash,"14 mg, N = 15",1 (6.7) patients (%)
same,Rotator cuff syndrome,"14 mg, N = 15",0 patients (%)
same,Sialoadenitis,"14 mg, N = 15",1 (6.7) patients (%)
same,Sinus congestion,"14 mg, N = 15",0 patients (%)
same,Sinusitis,"14 mg, N = 15",1 (6.7) patients (%)
same,Sjogren's syndrome,"14 mg, N = 15",1 (6.7) patients (%)
same,Skin infection,"14 mg, N = 15",0 patients (%)
same,Subdural haematoma,"14 mg, N = 15",1 (6.7) patients (%)
same,Syncope,"14 mg, N = 15",0 patients (%)
same,Tendonitis,"14 mg, N = 15",1 (6.7) patients (%)
same,Thoracic outlet syndrome,"14 mg, N = 15",0 patients (%)
same,Tongue dry,"14 mg, N = 15",1 (6.7) patients (%)
same,Tooth abscess,"14 mg, N = 15",0 patients (%)
same,Tooth extraction,"14 mg, N = 15",0 patients (%)
same,Toothache,"14 mg, N = 15",0 patients (%)
same,Upper respiratory tract infection,"14 mg, N = 15",1 (6.7) patients (%)
same,Vision blurred,"14 mg, N = 15",1 (6.7) patients (%)
same,Visual field defect,"14 mg, N = 15",0 patients (%)
same,Visual impairment,"14 mg, N = 15",1 (6.7) patients (%)
same,Vitamin B12 deficiency,"14 mg, N = 15",1 (6.7) patients (%)
same,Vitamin D decreased,"14 mg, N = 15",2 (13.3) patients (%)
same,Vitreous floaters,"14 mg, N = 15",1 (6.7) patients (%)
same,Vulvovaginal candidiasis,"14 mg, N = 15",0 patients (%)
same,Wrist fracture,"14 mg, N = 15",0 patients (%)
same,Xanthelasma,"14 mg, N = 15",0 patients (%)
same,blurred optic disc margins with transient visual obscuration,"24 mg, 12-month visit, ocular exam",observed in one patient
same,Abdominal discomfort,"24 mg, N = 15",1 (6.7) patients (%)
same,Abdominal distension,"24 mg, N = 15",1 (6.7) patients (%)
same,Abdominal pain upper,"24 mg, N = 15",1 (6.7) patients (%)
same,Abnormal dreams,"24 mg, N = 15",1 (6.7) patients (%)
same,"Adverse events, Overall","24 mg, N = 15",13 (86.7) patients (%)
same,Alanine aminotransferase increased,"24 mg, N = 15",0 patients (%)
same,Alopecia,"24 mg, N = 15",0 patients (%)
same,Ankle fracture,"24 mg, N = 15",0 patients (%)
same,Arthralgia,"24 mg, N = 15",1 (6.7) patients (%)
same,Arthritis,"24 mg, N = 15",0 patients (%)
same,Aspartate aminotransferase increased,"24 mg, N = 15",0 patients (%)
same,Back injury,"24 mg, N = 15",0 patients (%)
same,Back pain,"24 mg, N = 15",1 (6.7) patients (%)
same,Blepharospasm,"24 mg, N = 15",0 patients (%)
same,Blood cholesterol increased,"24 mg, N = 15",1 (6.7) patients (%)
same,Blood creatinine increased,"24 mg, N = 15",0 patients (%)
same,Blood iron decreased,"24 mg, N = 15",1 (6.7) patients (%)
same,Blood pressure increased,"24 mg, N = 15",1 (6.7) patients (%)
same,Blood triglycerides increased,"24 mg, N = 15",0 patients (%)
same,Bowel movement irregularity,"24 mg, N = 15",1 (6.7) patients (%)
same,Bronchitis,"24 mg, N = 15",0 patients (%)
same,Cartilage injury,"24 mg, N = 15",0 patients (%)
same,Conjunctival laceration,"24 mg, N = 15",1 (6.7) patients (%)
same,Conjunctivitis,"24 mg, N = 15",0 patients (%)
same,Constipation,"24 mg, N = 15",1 (6.7) patients (%)
same,Cough,"24 mg, N = 15",2 (13.3) patients (%)
same,Death,"24 mg, N = 15",0 patients (%)
same,Depression,"24 mg, N = 15",0 patients (%)
same,Diarrhoea,"24 mg, N = 15",0 patients (%)
same,Diplopia,"24 mg, N = 15",1 (6.7) patients (%)
same,Dry eye,"24 mg, N = 15",1 (6.7) patients (%)
same,Dry mouth,"24 mg, N = 15",0 patients (%)
same,Dry skin,"24 mg, N = 15",1 (6.7) patients (%)
same,Ear discomfort,"24 mg, N = 15",1 (6.7) patients (%)
same,Ear infection,"24 mg, N = 15",0 patients (%)
same,Ear pain,"24 mg, N = 15",0 patients (%)
same,Eczema,"24 mg, N = 15",0 patients (%)
same,Electrocardiogram abnormal,"24 mg, N = 15",0 patients (%)
same,Erythema,"24 mg, N = 15",0 patients (%)
same,Eye irritation,"24 mg, N = 15",0 patients (%)
same,Eye pain,"24 mg, N = 15",1 (6.7) patients (%)
same,Eye pruritus,"24 mg, N = 15",1 (6.7) patients (%)
same,Face injury,"24 mg, N = 15",0 patients (%)
same,Faeces soft,"24 mg, N = 15",0 patients (%)
same,Fall,"24 mg, N = 15",1 (6.7) patients (%)
same,Gastroenteritis,"24 mg, N = 15",0 patients (%)
same,Gastroenteritis viral,"24 mg, N = 15",1 (6.7) patients (%)
same,Hair texture abnormal,"24 mg, N = 15",0 patients (%)
same,Hand fracture,"24 mg, N = 15",0 patients (%)
same,Headache,"24 mg, N = 15",2 (13.3) patients (%)
same,Herpes zoster,"24 mg, N = 15",0 patients (%)
same,Hordeolum,"24 mg, N = 15",1 (6.7) patients (%)
same,Hypertension,"24 mg, N = 15",1 (6.7) patients (%)
same,Hypobarism,"24 mg, N = 15",1 (6.7) patients (%)
same,Hypothyroidism,"24 mg, N = 15",1 (6.7) patients (%)
same,Hysterectomy,"24 mg, N = 15",1 (6.7) patients (%)
